The results in this text go back to ChEMBL document CHEMBL1152847, “Molecular modeling and inhibition of phospholipase A2 by polyhydroxy phenolic compounds” (Eur J Med Chem, 2009).

Assay [1] in a line: Inhibition of Crotalus adamanteus venom PLA2 assessed as effect on 1-hexadecanoyl-2-(1-pyrenedecanoyl)-sn-glycero-3-phosphoglycerol hydrolysis at 0.15 uM.
Assay [2] can be described thus: Inhibition of Crotalus adamanteus venom PLA2 assessed as effect on 1-hexadecanoyl-2-(1-pyrenedecanoyl)-sn-glycero-3-phosphoglycerol hydrolysis at 0.30 uM.
Assay [3] relates to Crotalus adamanteus. The assay can be described thus: Activity of Crotalus adamanteus venom PLA2 assessed as 1-hexadecanoyl-2-(1-pyrenedecanoyl)-sn-glycero-3-phosphoglycerol hydrolysis at 0.30 uM.
For assay [4], the system named is Crotalus adamanteus. Briefly: Activity of Crotalus adamanteus venom PLA2 assessed as 1-hexadecanoyl-2-(1-pyrenedecanoyl)-sn-glycero-3-phosphoglycerol hydrolysis at 0.15 uM.
Assay [5] has as its system Crotalus adamanteus. The assay can be described thus: Inhibition of Crotalus adamanteus venom PLA2-induced edema in Swiss mouse at 50 ug, id. The assay is classed as functional, organism-based.

One may read the pKi as the negative decadic logarithm of the Ki, by convention in mol/L. For orientation: Km means the concentration of substrate that gives half-maximal velocity. A word on the Vmax: it is the rate approached at saturating substrate.

Each structure is given as a SMILES string. pKi: −log10 of the molar value. Calls of active or inactive are those of the source. The calls are words filed in the database; no cut-off is given here.

For `CC(=O)c1ccc(O)cc1O`, the pKi was 7.48 in assay [1] and 7.49 in assay [2]. Moreover, the Km in the assay with Crotalus adamanteus [3] came to 7.57 mM; in the assay on Crotalus adamanteus [4], 4.03 mM. The maximum rate (Vmax) is 18.2 nmol/min with Crotalus adamanteus [3] and 18.1 nmol/min with Crotalus adamanteus [4].
As to `CC(=O)c1c(O)cccc1O`, the pKi in assay [1] is 7.52; in assay [2] it was 7.51. Besides, the Michaelis constant (Km) with Crotalus adamanteus [3] was 7.78 mM; with Crotalus adamanteus [4], 4.25 mM. Also, the Vmax worked out at 18 nmol/min in the assay on Crotalus adamanteus [3] and 18.2 nmol/min in the assay with Crotalus adamanteus [4].
Turning to `CC(=O)c1c(O)cc(O)cc1O` [2,4,6-TRIHYDROXYACETOPHENONE], the negative-log Ki (pKi) was 8.05 in assay [1] and 8.06 in assay [2]. The Km is 28.2 mM in the assay with Crotalus adamanteus [3] and 15.1 mM with Crotalus adamanteus [4]. Besides, the Vmax in the assay with Crotalus adamanteus [3] turned out to be 18.3 nmol/min; in the assay on Crotalus adamanteus [4] it was 18 nmol/min. Also, the outcome in the assay on Crotalus adamanteus [5] was Active.
`Oc1cc(O)cc(O)c1` [PHLOROGLUCINOL]: the values for the pKi in assay [1] and in assay [2] were 8.06 and 8.05, respectively. In addition, the Michaelis constant (Km) with Crotalus adamanteus [3] was determined as 23.2 mM; in the assay on Crotalus adamanteus [4] it was 12.1 mM. Also, the Vmax in the assay with Crotalus adamanteus [3] is 18 nmol/min; in the assay on Crotalus adamanteus [4] it was 18.1 nmol/min. In addition, in the assay on Crotalus adamanteus [5], the result was Active.
For `Oc1cccc(O)c1` [RESORCINOL], the values for the negative logarithm of the Ki (pKi) in assay [1] and in assay [2] were 8.05 and 8.06, respectively. Moreover, the Michaelis-Menten constant (Km) with Crotalus adamanteus [3] amounted to 24.8 mM; in the assay on Crotalus adamanteus [4], 12.6 mM. The results for the Vmax with Crotalus adamanteus [3] and in the assay on Crotalus adamanteus [4] were 18 nmol/min and 18.1 nmol/min, respectively. For the same compound, the outcome with Crotalus adamanteus [5] was Active.
